# Data from patent US8957070B2, “Glucokinase activator compounds, methods of activating glucokinase and methods of treating diabetes and obesity” (Takeda Pharmaceutical Company Limited, priority 2005, dated 2015).
# Target: T1, GST-hLGK1 (human liver type GK) (Homo sapiens, UniProt P35557)
# T1 construct: with a BamHI site added to immediately before the initiation codon; made in house; host or cells: Escherichia coli BL21
# T1 sequence (P35557 1-464 isoform P35557-3): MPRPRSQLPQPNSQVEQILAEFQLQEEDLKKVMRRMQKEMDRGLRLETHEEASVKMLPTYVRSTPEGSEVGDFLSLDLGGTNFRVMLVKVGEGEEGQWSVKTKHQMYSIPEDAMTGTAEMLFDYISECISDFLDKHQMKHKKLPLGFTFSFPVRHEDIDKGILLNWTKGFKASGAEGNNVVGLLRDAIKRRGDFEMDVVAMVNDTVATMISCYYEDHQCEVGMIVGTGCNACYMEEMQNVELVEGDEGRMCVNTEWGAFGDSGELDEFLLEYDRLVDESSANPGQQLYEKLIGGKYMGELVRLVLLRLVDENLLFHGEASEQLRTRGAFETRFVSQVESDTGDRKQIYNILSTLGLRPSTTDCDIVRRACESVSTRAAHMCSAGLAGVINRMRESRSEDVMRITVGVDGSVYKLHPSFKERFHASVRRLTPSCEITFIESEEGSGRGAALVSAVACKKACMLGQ
# Assay: Determination of GK activity value (Mant-ATP conversion, capillary electrophoresis)
# Type: biochemical
# Conditions: concentration necessary for activating 50% of the maximum GK activity value, 37° C., 60 min, D-glucose added
# Protocol: A solution (5 μL) of test compound in 50% dimethyl sulfoxide was added to each well of 384 well black plate (Nalge Nunc International K.K.). Then, a solution (35 μL) obtained by diluting GST-hLGK1 obtained in Reference Example 2A with measurement buffer (containing 50 mM HEPES (pH 7.4), 200 mM KCl, 5 mM MgCl2, 2.5 mM DTT and 50 μM 2′-(or -3′)-O—(N-methylanthraniloyl)adenosine 5′-triphosphate (Mant-ATP) (Jena Bioscience GmbH)) to 6 μg/mL was added to each well.
# Each well was stood at 37° C. for 10 min, and 25 mM D-glucose solution (10 μL) was added to start the reaction.
# Each well after the reaction was stood at 37° C. for 60 min, and the reaction was quenched by adding 25 μL of a quenching solution (containing 200 mM HEPES (pH 7.4), 20 mM MgCl2, 200 mM EDTA, 0.03% Triton-X 100, 0.3% Coating 3 reagent (Caliper Life Sciences, Inc.)).
# Mant-ATP (substrate) and Mant-ADP (reaction resultant product) were separated from each well after the reaction by a microchip type capillary electrophoresis apparatus 250 HTS (Caliper Life Sciences, Inc.). The reaction rate [(reaction resultant product peak height)/(reaction resultant product peak height+substrate peak height)×100(%)] was calculated from the ratio of the substrate peak height and reaction resultant product peak height obtained by fluorescence detection (excitation wavelength 355 nm, measurement wavelength 460 nm) and used as the index of GK activity.
# As a control group, the reaction rate was calculated in the same manner as above except that “solution in 50% dimethyl sulfoxide” was used instead of “solution of test compound in 50% dimethyl sulfoxide”.
# The percentage obtained by dividing the reaction rate of the well added with the test compound (test compound addition group) by the reaction rate of the well added with 50% solution in dimethyl sulfoxide alone (control group) was taken as the GK activity value of the test compound, and the concentration of the test compound necessary for activating 50% of the maximum value of the activity value is shown as EC50 value.
row,EC50,SMILES
1,1500 nM,"O=S(=O)(Nc1cccc2cc(-c3ccccn3)[nH]c12)c1cccs1 [Example 8, N-[2-(Pyridin-2-yl)-1H-indol-7-yl]thiophene-2-sulfonamide]"
2,1400 nM,"O=C1CCCc2c1[nH]c1c(NS(=O)(=O)c3cccs3)cccc21 [Example 11, N-(1-Oxo-2,3,4,9-tetrahydro-1H-carbazol-8-yl) thiophene-2-sulfonamide]"
3,2000 nM,"Cc1cc(NS(=O)(=O)c2cccs2)c2[nH]c3c(c2c1)CCNC3=O [Example 52, N-(6-Methyl-1-oxo-2,3,4,9-tetrahydro-1H-β-carbolin-8-yl)thiophene-2-sulfonamide]"
4,240 nM,"O=S(=O)(Nc1cccc2cc(-c3nccs3)[nH]c12)c1cccs1 [Example 7, N-[2-(1,3-Thiazol-2-yl)-1H-indol-7-yl]thiophene-2-sulfonamide]"
5,28 nM,"CN(c1cc(F)cc2cc(C3=NCCS3)[nH]c12)S(=O)(=O)c1cccs1 [Example 165, N-[2-(4,5-dihydro-1,3-thiazol-2-yl)-5-fluoro-1H-indol-7-yl]-N-methylthiophene-2-sulfonamide]"
6,1200 nM,"O=S(=O)(Nc1cccc2cc(C3=NCCO3)[nH]c12)c1cccs1 [Example 5, N-[2-(4,5-Dihydro-1,3-oxazol-2-yl)-1H-indol-7-yl]thiophene-2-sulfonamide]"
7,22 nM,"CN(c1cc(OC(F)(F)F)cc2cc(C3=NCCS3)[nH]c12)S(=O)(=O)c1cccs1 [Example 169, N-[2-(4,5-dihydro-1,3-thiazol-2-yl)-5-(trifluoromethoxy)-1H-indol-7-yl]-N-methylthiophene-2-sulfonamide]"
8,19 nM,"CN(c1ccc(Cl)c2cc(-c3ncc(CO)s3)[nH]c12)S(=O)(=O)c1cccs1 [Example 261, N-{4-chloro-2-[5-(hydroxymethyl)-1,3-thiazol-2-yl]-1H-indol-7-yl}-N-methylthiophene-2-sulfonamide]"
9,34 nM,"CCN(c1cccc2cc(C3=NCCS3)[nH]c12)S(=O)(=O)c1cccs1 [Example 104, N-[2-(4,5-Dihydro-1,3-thiazol-2-yl)-1H-indol-7-yl]-N-ethylthiophene-2-sulfonamide]"
10,80 nM,"CN(c1cccc2cc(-c3ncc(CCC#N)s3)[nH]c12)S(=O)(=O)c1cccs1 [Example 151, N-{2-[5-(2-Cyanoethyl)-1,3-thiazol-2-yl]-1H-indol-7-yl}-N-methylthiophene-2-sulfonamide]"
11,110 nM,"O=S(=O)(Nc1cccc2cc(C3=NCCS3)[nH]c12)c1cccs1 [Example 3, N-[2-(4,5-dihydro-1,3-thiazol-2-yl)-1H-indol-7-yl]thiophene-2-sulfonamide]"
12,2700 nM,"CCOC(=O)c1[nH]c2c(NS(=O)(=O)c3cccs3)cccc2c1C [Example 23, Ethyl 3-methyl-7-[(2-thienylsulfonyl)amino]-1H-indole-2-carboxylate]"
13,4800 nM,"O=S(=O)(Nc1cccc2cc(-c3ncon3)[nH]c12)c1cccs1 [Example 17, N-[2-(1,2,4-Oxadiazol-3-yl)-1H-indol-7-yl]thiophene-2-sulfonamide]"
14,27 nM,"CN(c1cccc2cc(C3=NCCS3)[nH]c12)S(=O)(=O)c1cccs1 [Example 86, N-[2-(4,5-Dihydro-1,3-thiazol-2-yl)-1H-indol-7-yl]-N-methylthiophene-2-sulfonamide]"
15,77 nM,"CN(c1cccc2cc(-c3nccs3)[nH]c12)S(=O)(=O)c1cccs1 [Example 97, N-Methyl-N-[2-(1,3-thiazol-2-yl)-1H-indol-7-yl]thiophene-2-sulfonamide]"
16,1700 nM,"Cc1c(C2=NCCS2)[nH]c2c(NS(=O)(=O)c3cccs3)cccc12 [Example 26, N-[2-(4,5-Dihydro-1,3-thiazol-2-yl)-3-methyl-1H-indol-7-yl]thiophene-2-sulfonamide]"
17,48 nM,"CCOC(=O)Cc1cnc(-c2cc3cccc(N(C)S(=O)(=O)c4cccs4)c3[nH]2)s1 [Example 137, Ethyl (2-{7-[methyl(2-thienylsulfonyl)amino]-1H-indol-2-yl}-1,3-thiazol-5-yl)acetate]"
18,390 nM,"CCCSc1ccc(NS(=O)(=O)c2cccs2)c2[nH]c(C(=O)OCC)cc12 [Example 65, Ethyl 4-(propylthio)-7-[(2-thienylsulfonyl)amino]-1H-indole-2-carboxylate]"
19,510 nM,"CN(c1cccc2cc(-c3nccs3)[nH]c12)S(=O)(=O)c1nccn1C [Example 209, N,1-Dimethyl-N-[2-(1,3-thiazol-2-yl)-1H-indol-7-yl]-1H-imidazole-2-sulfonamide]"
20,35 nM,"CCN(c1cccc2cc(-c3ncc(COc4ccc(C(=O)O)cc4)s3)[nH]c12)S(=O)(=O)c1cccs1 [Example 280, 4-[(2-{7-[ethyl(2-thienylsulfonyl)amino]-1H-indol-2-yl}-1,3-thiazol-5-yl)methoxy]benzoic acid]"
21,180 nM,"CN(c1cccc2cc(-c3ncc(CN4CCOCC4)s3)[nH]c12)S(=O)(=O)c1cccs1 [Example 146, N-Methyl-N-{2-[5-(morpholin-4-ylmethyl)-1,3-thiazol-2-yl]-1H-indol-7-yl}thiophene-2-sulfonamide]"

# Tested on: not given
# Assay: not given
# Conditions: not given
row,melting point,SMILES
1,245 to 246 °C,"CN(c1cc(OC(F)(F)F)cc2cc(C(=O)O)[nH]c12)S(=O)(=O)c1cccs1 [Example 167, 7-[Methyl(2-thienylsulfonyl)amino]-5-(trifluoromethoxy)-1H-indole-2-carboxylic acid]"
2,189 to 190 °C,"CCN(c1cc(C)c(C)c2cc(-c3ncc(CO)s3)[nH]c12)S(=O)(=O)c1cccs1 [Example 254, N-Ethyl-N-{2-[5-(hydroxymethyl)-1,3-thiazol-2-yl]-4,5-dimethyl-1H-indol-7-yl}thiophene-2-sulfonamide]"
3,152 to 153 °C,"CCN(c1ccc(C)c2cc(-c3ncc(C(C)O)s3)[nH]c12)S(=O)(=O)c1cccs1 (centres unmarked) [Example 249, N-Ethyl-N-{2-[5-(1-hydroxyethyl)-1,3-thiazol-2-yl]-4-methyl-1H-indol-7-yl}thiophene-2-sulfonamide]"
4,184 to 185 °C,"Cc1ccc(N(C)S(=O)(=O)c2cccs2)c2[nH]c(-c3ncc(CO)s3)cc12 [Example 245, N-{2-[5-(Hydroxymethyl)-1,3-thiazol-2-yl]-4-methyl-1H-indol-7-yl}-N-methylthiophene-2-sulfonamide]"
5,134 to 135 °C,"CCOC(=O)c1cc2c(C)c(C)cc(N(CC)S(=O)(=O)c3cccs3)c2[nH]1 [Example 251, Ethyl 7-[ethyl(2-thienylsulfonyl)amino]-4,5-dimethyl-1H-indole-2-carboxylate]"
6,166 to 167 °C,"CCN(c1ccc(C)c2cc(-c3ncc(CO)s3)[nH]c12)S(=O)(=O)c1cccs1 [Example 250, N-Ethyl-N-{2-[5-(hydroxymethyl)-1,3-thiazol-2-yl]-4-methyl-1H-indol-7-yl}thiophene-2-sulfonamide]"
7,148 to 149 °C,"CCOC(=O)c1cc2c(C)ccc(N(CC)S(=O)(=O)c3cccs3)c2[nH]1 [Example 246, Ethyl 7-[ethyl(2-thienylsulfonyl)amino]-4-methyl-1H-indole-2-carboxylate]"
8,223 to 225 °C,"Cc1ccc(N(C)S(=O)(=O)c2cccs2)c2[nH]c(C(=O)O)cc12 [Example 175, 4-Methyl-7-[methyl (2-thienylsulfonyl)amino]-1H-indole-2-carboxylic acid]"
9,159 to 160 °C,"Cc1ccc(N(C)S(=O)(=O)c2cccs2)c2[nH]c(-c3nccs3)cc12 [Example 177, N-Methyl-N-[4-methyl-2-(1,3-thiazol-2-yl)-1H-indol-7-yl]thiophene-2-sulfonamide]"
10,162 to 163 °C,"CNc1nc(-c2cc3cccc(N(C)S(=O)(=O)c4cccs4)c3[nH]2)cs1 [Example 174, N-Methyl-N-{2-[2-(methylamino)-1,3-thiazol-4-yl]-1H-indol-7-yl}thiophene-2-sulfonamide]"
11,161 to 162 °C,"Cc1nc(-c2cc3cccc(N(C)S(=O)(=O)c4cccs4)c3[nH]2)cs1 [Example 173, N-Methyl-N-[2-(2-methyl-1,3-thiazol-4-yl)-1H-indol-7-yl]thiophene-2-sulfonamide]"
